Source: patent publication US12679843B2, “Pyrrolopyrimidine amines as complement inhibitors” (BioCryst Pharmaceuticals, Inc., priority 2020, dated 2026)

Each compound was assayed against Factor D (Homo sapiens, UniProt P00746) (assay: Factor D esterolytic assay (Z-Lys-SBzl thioester substrate, DTNB, 405 nm)). Conditions: substrate Z-Lys-SBzl 1.29 mM, 100 mM HEPES, 500 mM NaCl, pH 7.5, 10% DMSO, tested a minimum of three times.
Format: biochemical
Experimental: The IC50 value of a compound (i.e., the concentration of the compound that inhibits 50% of the enzymatic activity) was calculated according to the procedure reported in U.S. Pat. No. 6,653,340 B1, e.g., column 74 (incorporated by reference).
Specifically, the compounds were dissolved in a stock solution of DMSO at 10.0 or 100 mM. A portion of this stock solution was added to assay buffer in a final volume of 50 μL. Controls included buffer alone and enzyme solutions to which DMSO was added. Substrate was added to the reaction wells immediately or after incubation at room temperature. The reaction rates were measured spectrophotometrically by the generation of product at 405 nm for 600 sec. Background absorbance at 690 nm was measured and subtracted from the absorbance at 405 nm for each well.
The reaction rate for enzyme alone was compared to the rate of enzyme in the presence of inhibitor and the percent inhibition was calculated as shown below: Percent Inhibition=[Rate without inhibitor−Rate with inhibitor)/(Rate without inhibitor)]−100 Factor D Esterolytic Assay:
An established esterolytic assay for the measurement of Factor D activity and inhibition of Factor D activity was used (Kam, C. M.; McRae, B. J.; Harper, J. W.; Niemann, M. A.; Volanakis, J. E.; Powers, J. C. Human complement proteins D. C2, and B Active site mapping with peptide thioester substrates. J Biol. Chem. 1987, 262, 3444-3451). For this assay Z-Lys-SBzl, 1.29 mM (Kim, S.; Narayana, S. V. L; Volanakis, J. E. Mutational analysis of the substrate binding site of human complement Factor D. Biochemistry, 1994, 33, 14393-14399) was used as the substrate for Factor D ([…]). Hydrolysis of this compound by Factor D liberated a free sulfhydryl group which is then reacted with 5,5′-dithiobis(2-nitrobenzoic acid) producing an intense yellow color (Habeeb, A. F. S. A. Reaction of protein sulfhydryl groups with Ellman's Reagent. Methods in Enzymol. 1976, 25, 457-464). The assays were performed in 96 well microtiter plates and rates of hydrolysis were monitored at 405 nm on a Biotek Synergy H1 plate reader. Hydrolysis rates were reported as change in mOD/min. The assay was conducted in 100 mM HEPES, 500 mM NaCl, pH 7.5 containing 10% DMSO in a final volume of 50 μL per well.
An IC50, a compound concentration which inhibits 50% of the enzymatic activity, was calculated. Compounds in the examples were tested a minimum of three times.

Chain of Factor D (P00746 26-253): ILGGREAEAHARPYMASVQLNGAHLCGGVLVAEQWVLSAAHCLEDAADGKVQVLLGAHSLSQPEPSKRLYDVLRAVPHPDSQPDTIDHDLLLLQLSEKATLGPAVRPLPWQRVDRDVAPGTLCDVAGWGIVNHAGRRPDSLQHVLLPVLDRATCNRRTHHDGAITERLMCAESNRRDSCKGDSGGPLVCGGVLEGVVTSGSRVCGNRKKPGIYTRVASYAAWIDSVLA

Going from `CC1(C)CC(O)CC(NC(=O)[C@@H]2C[C@H]3C[C@H]3N2C(=O)Cn2cnc3c(N)ncnc32)C1` (mixture of isomers) [Compound 106b, (1R,3S,5R)-2-(2-(6-amino-9H-purin-9-yl)acetyl)-N-(5-hydroxy-3,3-dimethylcyclohexyl)-2-azabicyclo[3.1.0]hexane-3-carboxamide] to `Cc1ccc2c(c1)c1c(N)ncnc1n2CC(=O)N1[C@@H]2C[C@@H]2C[C@H]1C(=O)Nc1cccc(Br)n1` [Compound 6e, (1R,3S,5R)-2-(2-(4-amino-6-methyl-9H-pyrimido[4,5-b]indol-9-yl)acetyl)-N-(6-bromopyridin-2-yl)-2-azabicyclo[3.1.0]hexane-3-carboxamide], the IC50 falls from over 1000 nM to under 100 nM.

First: Cc1ccc2c(c1)c1c(N)ncnc1n2C(C)C(=O)N1[C@@H]2C[C@@H]2C[C@H]1C(=O)Nc1cccc(Br)n1 (single isomer, unassigned) [Compound 22c]
Second: Nc1ccc2c3c(N)ncnc3n(CC(=O)N3[C@@H]4C[C@@H]4C[C@H]3C(=O)Nc3cccc(Br)n3)c2c1 [Compound 18a, (1R,3S,5R)—N-(6-bromopyridin-2-yl)-2-(2-(4,7-diamino-9H-pyrimido[4,5-b]indol-9-yl)acetyl)-2-azabicyclo[3.1.0]hexane-3-carboxamide]
The IC50 of the first is higher: over 1000 nM for the first, under 100 nM for the second. The second is the more potent here.

First: Cc1ccc2c(c1)c1c(N)ncnc1n2C(C)C(=O)N1[C@@H]2C[C@@H]2C[C@H]1C(=O)Nc1cccc(Br)n1 (single isomer, unassigned) [Compound 22d]
Second: Cc1ccc2c(c1)c1c(N)ncnc1n2CC(=O)N1[C@H](C(=O)Nc2cccc(Br)n2)C[C@@]2(C)C[C@@H]12 [Compound 8b, (1R,3S,5R)-2-(2-(4-amino-6-methyl-9H-pyrimido[4,5-b]indol-9-yl)acetyl)-N-(6-bromopyridin-2-yl)-5-methyl-2-azabicyclo[3.1.0]hexane-3-carboxamide]
The IC50 of the first is higher: over 1000 nM for the first, under 100 nM for the second. The second is the more potent here.

First: Nc1ncnc2c1cc1n2C(C(=O)N2[C@@H](C(=O)Nc3cccc(Br)n3)C[C@@H]3C[C@@H]32)Oc2ccccc2-1 (single isomer, unassigned) [Compound 293a]
Second: Nc1ncnc2c1c1ccccc1n2CC(=O)N1[C@@H]2C[C@@H]2C[C@H]1C(=O)Nc1cccc(Br)n1 [Compound 4b, (1R,3S,5R)-2-(2-(4-amino-9H-pyrimido[4,5-b]indol-9-yl)acetyl)-N-(6-bromopyridin-2-yl)-2-azabicyclo[3.1.0]hexane-3-carboxamide]
The IC50 of the first is higher: 100 to 1000 nM for the first, under 100 nM for the second.

`Nc1ncnc2c1cc1n2C(C(=O)N2[C@@H](C(=O)Nc3cccc(Br)n3)C[C@@H]3C[C@@H]32)Oc2ccccc2-1` (single isomer, unassigned) [Compound 293b] and `Nc1ncnc2c1c1ccc(C(F)(F)F)cc1n2CC(=O)N1[C@@H]2C[C@@H]2C[C@H]1C(=O)Nc1cccc(Br)n1` [Compound 16e, (1R,3S,5R)-2-(2-(4-amino-7-(trifluoromethyl)-9H-pyrimido[4,5-b]indol-9-yl)acetyl)-N-(6-bromopyridin-2-yl)-2-azabicyclo[3.1.0]hexane-3-carboxamide] cannot be ordered by IC50: under 100 nM for the first, under 100 nM for the second.

`Cc1ccc(Br)nc1NC(=O)[C@@H]1C[C@H]2C[C@H]2N1C(=O)Cn1c2ccccc2c2c(N)ncnc21` [Compound 1e, (1R,3S,5R)-2-(2-(4-amino-9H-pyrimido[4,5-b]indol-9-yl)acetyl)-N-(6-bromo-3-methylpyridin-2-yl)-2-azabicyclo[3.1.0]hexane-3-carboxamide] and `Cc1ccc(Br)nc1NC(=O)[C@@H]1C[C@@H](F)CN1C(=O)Cn1c2ccccc2c2c(N)ncnc21` [Compound 3b, (2S,4R)-1-(2-(4-amino-9H-pyrimido[4,5-b]indol-9-yl)acetyl)-N-(6-bromo-3-methylpyridin-2-yl)-4-fluoropyrrolidine-2-carboxamide] cannot be ordered by IC50: under 100 nM for the first, under 100 nM for the second.

First: Cc1ccc(Br)nc1NC(=O)[C@@H]1C[C@H]2C[C@H]2N1C(=O)Cc1ccc2c(N)ncnn12 [Compound 2d, (1R,3S,5R)-2-(2-(4-aminopyrrolo[2,1-f][1,2,4]triazin-7-yl)acetyl)-N-(6-bromo-3-methylpyridin-2-yl)-2-azabicyclo[3.1.0]hexane-3-carboxamide]
Second: Cc1ccc(Br)nc1NC(=O)[C@@H]1C[C@H]2C[C@H]2N1C(=O)Cn1c2ccc(C(F)(F)F)cc2c2c(N)ncnc21 [Compound 15a, (1R,3S,5R)-2-(2-(4-amino-6-(trifluoromethyl)-9H-pyrimido[4,5-b]indol-9-yl)acetyl)-N-(6-bromo-3-methylpyridin-2-yl)-2-azabicyclo[3.1.0]hexane-3-carboxamide]
The IC50 of the first is higher: over 1000 nM for the first, under 100 nM for the second.

First: Nc1ncnc2c1ccn2CC(=O)N1C[C@H](F)C[C@H]1C(=O)Nc1cccc(Br)n1 [Compound 5e, (2S,4R)-1-(2-(4-amino-7H-pyrrolo[2,3-d]pyrimidin-7-yl)acetyl)-N-(6-bromopyridin-2-yl)-4-fluoropyrrolidine-2-carboxamide]
Second: Nc1ncnc2c1c1ccccc1n2CC(=O)N1C[C@H](F)C[C@H]1C(=O)Nc1cccc(Br)n1 [Compound 19a, (2S,4R)-1-(2-(4-amino-9H-pyrimido[4,5-b]indol-9-yl)acetyl)-N-(6-bromopyridin-2-yl)-4-fluoropyrrolidine-2-carboxamide]
The IC50 of the first is higher: 100 to 1000 nM for the first, under 100 nM for the second.

`Cc1ccc2c(c1)c1c(N)ncnc1n2CC(=O)N1C[C@H](F)C[C@H]1C(=O)NCc1cccc(Cl)c1F` [Compound 7b, (2S,4R)-1-(2-(4-amino-6-methyl-9H-pyrimido[4,5-b]indol-9-yl)acetyl)-N-(3-chloro-2-fluorobenzyl)-4-fluoropyrrolidine-2-carboxamide] and `Nc1ncnc2c1c1ccccc1n2CC(=O)N1C[C@H](F)C[C@H]1C(=O)NCc1cccc(Cl)c1F` [Compound 20a, (2S,4R)-1-(2-(4-amino-9H-pyrimido[4,5-b]indol-9-yl)acetyl)-N-(3-chloro-2-fluorobenzyl)-4-fluoropyrrolidine-2-carboxamide] cannot be ordered by IC50: under 100 nM for the first, under 100 nM for the second.

`C[C@@]12C[C@@H](C(=O)Nc3cccc(Br)n3)N(C(=O)Cn3c4ccccc4c4c(N)ncnc43)[C@@H]1C2` [Compound 9a, (1R,3S,5R)-2-(2-(4-amino-9H-pyrimido[4,5-b]indol-9-yl)acetyl)-N-(6-bromopyridin-2-yl)-5-methyl-2-azabicyclo[3.1.0]hexane-3-carboxamide] and `Cc1ccc(Br)nc1NC(=O)[C@@H]1C[C@@]2(C)C[C@H]2N1C(=O)Cn1c2ccccc2c2c(N)ncnc21` [Compound 12a, (1R,3S,5R)-2-(2-(4-amino-9H-pyrimido[4,5-b]indol-9-yl)acetyl)-N-(6-bromo-3-methylpyridin-2-yl)-5-methyl-2-azabicyclo[3.1.0]hexane-3-carboxamide] cannot be ordered by IC50: under 100 nM for the first, under 100 nM for the second.

`Cc1ccc2c(c1)c1c(N)ncnc1n2CC(=O)N1[C@H](C(=O)Nc2nc(Br)ccc2C)C[C@@]2(C)C[C@@H]12` [Compound 10b, (1R,3S,5R)-2-(2-(4-amino-6-methyl-9H-pyrimido[4,5-b]indol-9-yl)acetyl)-N-(6-bromo-3-methylpyridin-2-yl)-5-methyl-2-azabicyclo[3.1.0]hexane-3-carboxamide] and `Cc1ccc(Br)nc1NC(=O)[C@@H]1C[C@@]2(C)C[C@H]2N1C(=O)Cn1c2ccc(C(F)(F)F)cc2c2c(N)ncnc21` [Compound 11f, (1R,3S,5R)-2-(2-(4-amino-6-(trifluoromethyl)-9H-pyrimido[4,5-b]indol-9-yl)acetyl)-N-(6-bromo-3-methylpyridin-2-yl)-5-methyl-2-azabicyclo[3.1.0]hexane-3-carboxamide] cannot be ordered by IC50: under 100 nM for the first, under 100 nM for the second.

First: Nc1ncnc2c1c1ccccc1n2CC(=O)N1CCC[C@H]1C(=O)Nc1cccc(Br)n1 [Compound 13b, (S)-1-(2-(4-amino-9H-pyrimido[4,5-b]indol-9-yl)acetyl)-N-(6-bromopyridin-2-yl)pyrrolidine-2-carboxamide]
Second: CC(C)(C)OC(=O)Nc1ccc2c3c(N)ncnc3n(CC(=O)N3[C@@H]4C[C@@H]4C[C@H]3C(=O)Nc3cccc(Br)n3)c2c1 [Compound 17f, tert-butyl (4-amino-9-(2-((1R,3S,5R)-3-((6-bromopyridin-2-yl)carbamoyl)-2-azabicyclo[3.1.0]hexan-2-yl)-2-oxoethyl)-9H-pyrimido[4,5-b]indol-7-yl)carbamate]
The IC50 of the first is higher: 100 to 1000 nM for the first, under 100 nM for the second. The second is the more potent here.

For `Cc1ccc(Br)nc1NC(=O)[C@@H]1C[C@@H](F)CN1C(=O)Cn1c2ccc(C(F)(F)F)cc2c2c(N)ncnc21` [Compound 14a, (2S,4R)-1-(2-(4-amino-6-(trifluoromethyl)-9H-pyrimido[4,5-b]indol-9-yl)acetyl)-N-(6-bromo-3-methylpyridin-2-yl)-4-fluoropyrrolidine-2-carboxamide], the IC50 was under 100 nM.
